# Laboratory results taken from paper PMC7483475, “The Sporomusa type Nfn is a novel type of electron-bifurcating transhydrogenase that links the redox pools in acetogenic bacteria” (Scientific Reports, 2020).
# How the values were obtained:
# [1] = biological target: T1, Stn complex (Sporomusa type Nfn; StnABC) (Sporomusa ovata, UniProt A0A0U1KYI6+A0A0U1KYM9); assay: protein precipitation and thin layer chromatography of released flavin; format: binding; conditions: bound flavin, loosely bound; FAD and FMN present in purification buffers
# T1 construct: gene SpAn4DRAFT_2936; native purification from S. ovata cytoplasm, untagged; ~840 kDa tetrameric heterotrimer; identified by MALDI-TOF-MS; with Sporomusa type Nfn subunit A (NuoE-like, HydC/HndA-like [2Fe-2S] subunit)
# T1 sequence (A0A0U1KYM9 1-584): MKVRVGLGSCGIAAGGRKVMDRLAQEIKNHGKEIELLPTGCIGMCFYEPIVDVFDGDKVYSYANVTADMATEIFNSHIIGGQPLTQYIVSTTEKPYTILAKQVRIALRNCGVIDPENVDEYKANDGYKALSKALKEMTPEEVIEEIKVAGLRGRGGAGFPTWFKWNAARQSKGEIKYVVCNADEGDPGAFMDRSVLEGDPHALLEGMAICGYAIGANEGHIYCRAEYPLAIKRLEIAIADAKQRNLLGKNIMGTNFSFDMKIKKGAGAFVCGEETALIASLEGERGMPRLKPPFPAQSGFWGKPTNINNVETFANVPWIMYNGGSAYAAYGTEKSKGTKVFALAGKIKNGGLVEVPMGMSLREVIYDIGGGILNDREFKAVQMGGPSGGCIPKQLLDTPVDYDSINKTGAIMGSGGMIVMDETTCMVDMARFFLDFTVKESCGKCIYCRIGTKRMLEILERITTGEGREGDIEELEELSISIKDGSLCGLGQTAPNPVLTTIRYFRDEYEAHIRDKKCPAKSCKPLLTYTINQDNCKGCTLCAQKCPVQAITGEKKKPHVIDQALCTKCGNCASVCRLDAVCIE
# T1 sequence (A0A0U1KYI6 1-1172): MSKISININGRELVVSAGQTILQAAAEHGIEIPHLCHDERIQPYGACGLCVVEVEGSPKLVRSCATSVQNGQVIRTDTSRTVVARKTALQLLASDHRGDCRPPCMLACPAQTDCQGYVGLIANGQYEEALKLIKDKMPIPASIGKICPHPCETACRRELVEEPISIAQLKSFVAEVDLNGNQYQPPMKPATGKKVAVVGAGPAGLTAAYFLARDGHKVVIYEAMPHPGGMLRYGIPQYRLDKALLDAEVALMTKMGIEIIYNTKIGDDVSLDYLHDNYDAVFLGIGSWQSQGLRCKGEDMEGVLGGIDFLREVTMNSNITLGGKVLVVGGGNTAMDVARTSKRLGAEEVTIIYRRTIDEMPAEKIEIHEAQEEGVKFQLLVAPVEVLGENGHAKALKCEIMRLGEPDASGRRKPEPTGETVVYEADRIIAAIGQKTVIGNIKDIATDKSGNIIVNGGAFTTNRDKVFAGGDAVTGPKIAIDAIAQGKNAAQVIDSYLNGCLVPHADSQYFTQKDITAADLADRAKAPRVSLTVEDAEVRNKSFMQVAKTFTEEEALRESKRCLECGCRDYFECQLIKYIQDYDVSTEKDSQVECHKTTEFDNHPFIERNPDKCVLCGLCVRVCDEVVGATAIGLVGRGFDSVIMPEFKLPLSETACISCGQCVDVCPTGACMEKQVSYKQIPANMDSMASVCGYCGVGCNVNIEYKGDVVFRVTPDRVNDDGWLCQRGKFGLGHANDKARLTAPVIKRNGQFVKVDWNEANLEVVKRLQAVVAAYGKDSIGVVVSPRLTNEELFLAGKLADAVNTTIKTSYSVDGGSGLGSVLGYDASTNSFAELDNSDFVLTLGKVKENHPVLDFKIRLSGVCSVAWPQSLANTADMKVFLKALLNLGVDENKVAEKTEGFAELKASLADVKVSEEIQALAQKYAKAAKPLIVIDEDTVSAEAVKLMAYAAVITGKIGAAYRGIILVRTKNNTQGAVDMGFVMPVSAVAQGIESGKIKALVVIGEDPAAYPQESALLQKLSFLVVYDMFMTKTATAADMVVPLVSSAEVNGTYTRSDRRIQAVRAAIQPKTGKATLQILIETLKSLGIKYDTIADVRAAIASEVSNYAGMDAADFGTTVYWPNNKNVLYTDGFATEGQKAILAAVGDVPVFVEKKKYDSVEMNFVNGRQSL
# T1 sequence (A0A0U1KYW8 1-178 partner): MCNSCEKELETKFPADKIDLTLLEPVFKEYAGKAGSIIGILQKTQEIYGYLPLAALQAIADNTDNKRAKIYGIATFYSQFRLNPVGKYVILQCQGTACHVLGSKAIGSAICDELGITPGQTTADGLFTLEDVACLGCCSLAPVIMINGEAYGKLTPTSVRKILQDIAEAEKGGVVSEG
# StnC (strep-tagged) [2] = biological target: T2, StnC (strep-tagged) (Sporomusa ovata, UniProt A0A0U1KYI6); assay: thin layer chromatography of bound flavin; format: binding; conditions: bound flavin of recombinant StnC
# T2 construct: gene SpAn4DRAFT_2937; isolated subunit, N-terminal Strep-tag kept, E. coli BL21 (DE3) delta-iscR; translated from primers: N-term MWSHPQFEKSA-SKISININGR, C-term NFVNGRQSL
# T2 sequence (A0A0U1KYI6 2-1172): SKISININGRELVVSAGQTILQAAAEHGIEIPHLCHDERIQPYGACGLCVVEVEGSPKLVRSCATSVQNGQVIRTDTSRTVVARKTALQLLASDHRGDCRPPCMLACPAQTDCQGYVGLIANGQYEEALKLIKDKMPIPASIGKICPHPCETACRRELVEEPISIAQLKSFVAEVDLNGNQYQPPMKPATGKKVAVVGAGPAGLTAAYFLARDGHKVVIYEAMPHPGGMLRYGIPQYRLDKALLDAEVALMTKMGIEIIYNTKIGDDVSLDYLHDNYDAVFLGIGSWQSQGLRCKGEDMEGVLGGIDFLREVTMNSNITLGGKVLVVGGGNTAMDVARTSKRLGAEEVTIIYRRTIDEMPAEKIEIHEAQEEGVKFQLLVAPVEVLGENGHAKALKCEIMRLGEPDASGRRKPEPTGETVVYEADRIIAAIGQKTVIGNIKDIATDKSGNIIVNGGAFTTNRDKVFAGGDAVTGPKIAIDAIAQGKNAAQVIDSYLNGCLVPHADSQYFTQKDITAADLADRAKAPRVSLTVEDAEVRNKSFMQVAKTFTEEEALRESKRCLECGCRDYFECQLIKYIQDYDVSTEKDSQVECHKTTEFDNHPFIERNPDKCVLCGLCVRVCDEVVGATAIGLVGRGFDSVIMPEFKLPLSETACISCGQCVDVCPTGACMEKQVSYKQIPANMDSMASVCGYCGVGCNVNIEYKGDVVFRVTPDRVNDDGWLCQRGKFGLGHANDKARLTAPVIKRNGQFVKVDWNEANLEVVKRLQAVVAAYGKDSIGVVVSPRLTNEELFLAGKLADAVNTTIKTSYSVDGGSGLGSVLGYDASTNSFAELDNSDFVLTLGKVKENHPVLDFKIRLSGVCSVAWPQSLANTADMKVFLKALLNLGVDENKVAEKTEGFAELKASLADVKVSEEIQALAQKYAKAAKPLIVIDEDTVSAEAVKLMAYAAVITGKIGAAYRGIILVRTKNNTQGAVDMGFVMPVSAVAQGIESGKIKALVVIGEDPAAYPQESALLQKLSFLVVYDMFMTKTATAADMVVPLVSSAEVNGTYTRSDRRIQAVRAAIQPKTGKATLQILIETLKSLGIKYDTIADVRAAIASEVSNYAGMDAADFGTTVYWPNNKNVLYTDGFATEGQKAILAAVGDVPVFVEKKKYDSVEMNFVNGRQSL
# [3] = biological target: Sporomusa type Nfn (Stn) complex, heterotrimer of StnA, StnB and StnC (Sporomusa ovata); assay: SEC; analytical gel filtration of the purified Stn complex on Superdex 200; heterotrimer to tetramer of heterotrimers
# StnC (strep-tagged) [4] = biological target: T2, StnC (strep-tagged); assay: spectrophotometric NADPH-dependent acceptor reduction; format: biochemical; conditions: acceptors methyl viologen, FAD, FMN or ferricyanide; 100 mM Tris/HCl pH 7.5, 20 °C
# StnC (strep-tagged) [5] = biological target: T2, StnC (strep-tagged); assay: spectrophotometric FMN reduction, […] nm; format: biochemical; conditions: electron acceptor, 0.2 mM FMN, 0.25 mM NADPH; 100 mM Tris/HCl pH 7.5, 20 °C
compound,measurement,setting,value
Cc1cc2nc3c(=O)[nH]c(=O)nc-3n(C[C@H](O)[C@H](O)[C@H](O)COP(=O)(O)OP(=O)(O)OC[C@H]3O[C@@H](n4cnc5c(N)ncnc54)[C@H](O)[C@@H]3O)c2cc1C [FAD],protein precipitation and thin layer chromatography of released flavin,[1],FAD was identified to be the only flavin bound
same,thin layer chromatography of bound flavin,StnC (strep-tagged) [2],The identity of bound Flavin was elucidated by TLC to be FAD.
"Sporomusa type Nfn (Stn) complex, heterotrimer of StnA, StnB and StnC",stoichiometry N,[3],4
NC(=O)C1=CN([C@@H]2O[C@H](COP(=O)(O)OP(=O)(O)OC[C@H]3O[C@@H](n4cnc5c(N)ncnc54)[C@H](OP(=O)(O)O)[C@@H]3O)[C@@H](O)[C@H]2O)C=CC1 [NADPH],spectrophotometric NADPH-dependent acceptor reduction,StnC (strep-tagged) [4],"The purified protein exhibited NADPH oxidation with methyl viologen, FAD, FMN and ferricyanide"
Cc1cc2nc3c(=O)[nH]c(=O)nc-3n(C[C@H](O)[C@H](O)[C@H](O)COP(=O)(O)O)c2cc1C [FMN],"spectrophotometric FMN reduction, 450 nm",StnC (strep-tagged) [5],"The purified protein exhibited NADPH oxidation with methyl viologen, FAD, FMN and ferricyanide"
